Source: patent publication US7465718B2, “Ansamycins having improved pharmacological and biological properties” (Conforma Therapeutics Corporation, priority 2002, dated 2008)

What was measured:
[1] = tested on: Her-2; test: HER2 inhibition assay (Her-2 degradation in MCF7 cells, flow cytometry); format: cell-based; settings: read-out: HER-2 degradation (IC50 nM)
Experimental: MCF7 cells are seeded in 24 well plates at a density of approximately 30,000 cells/well and allowed to grow for 16 hours in DMEM supplemented with 10% FBS. Drug is then added at a concentration range of 100 uM to 0.01 uM. Cells are incubated for an additional 24. […] 10,000 events were collected per sample. A fluorescence histogram was generated and the mean fluorescence intensity (mfi) of each sample was determined using Cellquest software. The background was defined as the mfi generated from cells incubated with control IgG, and was subtracted from each sample stained with the HER-2/neu Ab. Percent degradation of Her-2 was calculated as follows: % Her-2 degradation=(mfi HER-2 sample)/(mfi HER-2 untreated cells)×100 Water Solubility Studies

[2] = Water solubility studies (salts dissolved in water at room temperature); format: physicochemical; settings: thermodynamic from solid, HCl salt, read-out: Solubility of the HCl salt in H2O
Experimental: Various salts were prepared as described in the example section and dissolved in water at room temperature.

[3] = target: HSP90 (bis-ANS treated); test: Biotin-geldanamycin competition binding, bis-ANS treated HSP90

Compound | IC50 [3] [µM] | melting point [°C] | further results
COc1ccccc1C1=C2CC(C)CC(OC)C(O)C(C)/C=C(\C)C(OC(N)=O)C(OC)/C=C\C=C(/C)C(=O)NC(=CC1=O)C2=O (stereo not shown) [Compound #212, 17-(2-methoxy-phenyl)-geldanamycin] |  |  | IC50 [1]: 10 nM; solubility [2]: < 10 µg/mL
CO[C@H]1/C=C\C=C(/C)C(=O)NC2=CC(=O)C(NC(=O)c3ccccc3)=C(C[C@@H](C)C[C@H](OC)[C@@H](OC(=O)Cc3cccs3)[C@@H](C)/C=C(\C)[C@@H]1OC(N)=O)C2=O [Compound #984] | 4.2 |  | 
CCO/N=C1/[C@@H](OC)C[C@H](C)CC2=C(NC(=O)c3ccccc3)C(=O)C=C(NC(=O)/C(C)=C/C=C\[C@H](OC)[C@@H](OC(N)=O)/C(C)=C/[C@@H]1C)C2=O (stereo in doubt) [Compound #1013] | 5.2 |  | 
COC1/C=C\C=C(/C)C(=O)NC2=CC(=O)C(NC(=O)c3cc(C)nn3C(C)(C)C)=C(CC(C)CC(OC)C(O)C(C)/C=C(\C)C1OC(N)=O)C2=O (stereo not shown) [Compound #561, 17-(1-t-butyl-3-methyl-1H-pyrazole-5-carbonyl-amino)-geldanamycin] |  | 216 to 218 | 
CO[C@H]1/C=C\C=C(/C)C(=O)NC2=CC(=O)C(NC(=O)c3ccccc3)=C(C[C@@H](C)C[C@H](OC)[C@@H](OC(=O)Cc3ccccc3)[C@@H](C)/C=C(\C)[C@@H]1OC(N)=O)C2=O [Compound #983] | 7 |  | 
COC1C=CC=C(C)C(=O)NC2=CC(=O)C(NCCCN3CCN(CCCNC4=C5CC(C)CC(OC)C(O)C(C)C=C(C)C(OC(N)=O)C(OC)C=CC=C(C)C(=O)NC(=CC4=O)C5=O)CC3)=C(CC(C)CC(OC)C(O)C(C)C=C(C)C1OC(N)=O)C2=O (stereo not shown) [Compound #207] |  | 162 | IC50 [1]: 12 nM; solubility [2]: ≥ 13000 µg/mL
CO/N=C1/[C@@H](OC)C[C@H](C)CC2=C(NC(=O)c3ccccc3)C(=O)C=C(NC(=O)/C(C)=C/C=C\[C@H](OC)[C@@H](OC(N)=O)/C(C)=C/[C@@H]1C)C2=O (stereo in doubt) [Compound #1012] | 6 |  | 
CO[C@H]1/C=C\C=C(/C)C(=O)NC2=CC(=O)C(NC(=O)c3ccccc3)=C(C[C@@H](C)C[C@H](OC)[C@@H](OC(=O)/C=C/c3cccs3)[C@@H](C)/C=C(\C)[C@@H]1OC(N)=O)C2=O [Compound #982] | 5.5 |  | 
COC1/C=C\C=C(/C)C(=O)NC2=CC(=O)C(c3ccccc3)=C(CC(C)CC(OC)C(O)C(C)/C=C(\C)C1OC(N)=O)C2=O (stereo not shown) [Compound #133, 17-phenyl-geldanamycin] |  |  | IC50 [1]: 25 nM; solubility [2]: < 10 µg/mL
CCOP(=O)(NCCCCNC1=C2CC(C)CC(OC)C(O)C(C)/C=C(\C)C(OC(N)=O)C(OC)/C=C\C=C(/C)C(=O)NC(=CC1=O)C2=O)OCC (stereo not shown) |  | 94.8 to 96.2 | 
COC1/C=C\C=C(/C)C(=O)NC2=CC(=O)C(NC(=O)c3snnc3C)=C(CC(C)CC(OC)C(O)C(C)/C=C(\C)C1OC(N)=O)C2=O (stereo not shown) |  | 157 to 159 | 
COC1/C=C\C=C(/C)C(=O)NC2=CC(=O)C(NC(=O)c3c(C)noc3C)=C(CC(C)CC(OC)C(O)C(C)/C=C(\C)C1OC(N)=O)C2=O (stereo not shown) |  | 190 to 192 | 
COC1/C=C\C=C(/C)C(=O)NC2=CC(=O)C(c3cccs3)=C(CC(C)CC(OC)C(O)C(C)/C=C(\C)C1OC(N)=O)C2=O (stereo not shown) [Compound #232, 17-(2-thiophen)-geldanamycin] |  |  | IC50 [1]: 80 nM; solubility [2]: < 10 µg/mL
CO[C@H]1/C=C\C=C(/C)C(=O)NC2=CC(=O)C(NC(=O)c3ccccc3)=C(C[C@@H](C)C[C@H](OC)[C@@H](OC(=O)CBr)[C@@H](C)/C=C(\C)[C@@H]1OC(N)=O)C2=O [Compound #981] | 5.5 |  | 
COC1/C=C\C=C(/C)C(=O)NC2=CC(=O)C(NC(=O)NCc3ccc(F)cc3)=C(CC(C)CC(OC)C(O)C(C)/C=C(\C)C1OC(N)=O)C2=O (stereo not shown) |  | 175 to 177 | 
COC1/C=C\C=C(/C)C(=O)NC2=CC(=O)C(NC(=O)c3cc(C)nn3C)=C(CC(C)CC(OC)C(O)C(C)/C=C(\C)C1OC(N)=O)C2=O (stereo not shown) |  | 193 to 195 | 
CCCCCC(=O)O[C@@H]1[C@@H](OC)C[C@H](C)CC2=C(NC(=O)c3ccccc3)C(=O)C=C(NC(=O)/C(C)=C/C=C\[C@H](OC)[C@@H](OC(N)=O)/C(C)=C/[C@@H]1C)C2=O [Compound #985] | 12 |  | 
